In patent US10967086B2, “Silver nanoparticle-enhanced photosensitizers as antibiofilm agents” (University Of Cincinnati, priority 2014, dated 2021):
Structures can show the parent of a compound that is named as a salt.

Columns and labels:
[1] = Loading efficiency of photosensitizers in the hybrids (UV-Vis absorption); assay type: physicochemical; conditions: named photosensitizer loaded into Ag@mSiO2@photosensitizer hybrid; Example 1
Protocol: The loading efficiencies of the photosensitizers in the hybrids were determined by UV-Vis absorption. […] Zeta potential measurements were carried out to further investigate the surface properties of the hybrids.
The morphology of the Ag@mSiO2@photosensitizer hybrids was characterized by a Phillips Biotwin 12 transmission electron microscope (FEI). TEM samples were prepared by directly applying 10 μL of the sample ethanol solution onto a carbon-coated copper grid (300 mesh, EMS) and left to dry at room temperature. UV-Vis absorption spectra were measured using a UV-Vis spectrometer (USB4000-ISS, Ocean Optics). The loading efficiency of photosensitizers was determined by measuring the photosensitizers in the supernatant after centrifugation via UV-Vis absorption spectra. The Ag^+ concentration was measured by a triple quadruple ICP-MS (ICP-QQQ, Agilent Technologies).

[2] = tested on: Acinetobacter baumannii (ATCC 19606); experiment: Photodynamic inactivation assay, white light, plate count; assay type: cell-based; conditions: Example 2
Protocol: (§1) Photodynamic Inactivation Assays. Typically, overnight cultures of Staphylococcus epidermidis (ATCC 35984), Escherichia coli (ATCC 35218), and Acinetobacter baumannii (ATCC 19606) were inoculated into PBS buffer solution (pH=7.4) and mixed with a series of concentrations of Ag@mSiO2@HPIX hybrid, HPIX (dissolved in the same PBS buffer solution), or Ag@mSiO2 nanoparticles. All bacterial suspensions (200 μL) were then placed in the wells of 96-well plates. The final cell concentration of the suspensions was between about 10^6 and 10^7 colony-forming units per mL (CFU/mL). The wells were illuminated with different fluences. After illumination, a plate count was performed. Bacterial viability was determined by a modified version of the Miles and Misra method.
(§2) The suspensions were serially 10-fold diluted with PBS. Then, drops of 10 μL of each dilution were applied onto MH II agar plates. Plates were streaked in triplicate and incubated for 18-24 h at 37° C. in the dark before counting. A non-coherent, white light source with interchangeable fiber bundle (model LC-122, LumaCare) was used in all photoinactivation experiments. The irradiance at the position of the samples was kept at 300 mW/cm^2, as measured by a laser power meter (Model 840011, SPER Scientific). […]

[3] = tested on: Escherichia coli (ATCC 35218); experiment: as above; assay type: cell-based; conditions: Example 2
Protocol: as §1, §2

[4] = tested on: Staphylococcus epidermidis (ATCC 35984); experiment: as above; assay type: cell-based
Protocol: as §1
(§3) The suspensions were serially 10-fold diluted with PBS. Then, drops of 10 μL of each dilution were applied onto MH II agar plates. Plates were streaked in triplicate and incubated for 18-24 h at 37° C. in the dark before counting. A non-coherent, white light source with interchangeable fiber bundle (model LC-122, LumaCare) was used in all photoinactivation experiments. The irradiance at the position of the samples was kept at 300 mW/cm^2, as measured by a laser power meter (Model 840011, SPER Scientific).
Ag@mSiO2@HPIX was used as a model system in the PDI study. Ag@mSiO2@HPIX was first tested with S. epidermidis, a Gram-positive bacterium. […]

T. rubrum (ATCC 28188) = experiment: Photodynamic inactivation of T. rubrum, LED, plate count; assay type: cell-based, Tricophyton rubrum
Protocol: The in vitro PDI of T. rubrum (ATCC 28188) was investigated using different concentrations of Ag@mSiO2@HPIX hybrids, pure HPIX and Ag@mSiO2. Control experiments were carried out without the LED illumination. […] Separately, T. rubrum samples were treated with an LED light source (400 nm, 54 mW/cm2), after incubating for 30 min. with different concentrations of the Ag@mSiO2@HPIX hybrids, free HPIX, and Ag@mSiO2, respectively. […] Plate count method was employed to determine the viable fungal count, after the growth of the T. rubrum became visible. […] In these experiments, the pure HPIX and Ag@mSiO2@HPIX hybrids have the same concentration of HPIX while the amounts of Ag in Ag@mSiO2@HPIX hybrids and Ag@mSiO2 was also kept constant. The enhancement of antifungal PDI efficacy of Ag@mSiO2@HPIX hybrids is defined as log10(enhancement)=log10(Ag@mSiO2@HPIX_killing)−log10(Ag@mSiO2_killing)−log10(HPIX_killing)

[5] = tested on: Escherichia coli (ATCC 35218) biofilm; experiment: Photodynamic inactivation of biofilms, LED, plate count; assay type: cell-based
Protocol: (§4) Typically, overnight biofilms of Escherichia coli (ATCC 35218), and S. aureus (MRSA) (ATCC BAA44) were washed with PBS buffer solution (pH=7.4), mixed with a series of concentrations of Ag@mSiO2@HPIX hybrid, HPIX (dissolved in the same PBS buffer solution), or Ag@mSiO2 nanoparticles, and these mixtures were incubated for an hour. All biofilms were illuminated with different fluences from a light emitting diode. After illumination, the biofilm was washed to remove the nanoparticle solution or HPIX and disrupted biofilm. A serial dilution was performed and 10 μL of each dilution was plated on an MHB place and incubated for 24 hours at 37° C. Bacterial biofilm viability was determined by a modified version of the Miles and Misra method.
as §3
(§5) The in vitro PDI of MRSA (ATCC BAA44) and E. coli (ATCC 35218) was investigated using different concentrations of Ag@mSiO2@HPIX hybrids, pure HPIX and Ag@mSiO2. Control experiments were carried out without the LED illumination. […] Separately, MRSA and E. coli samples were treated with an LED light source (400 nm, 1000 mW/cm2), after incubating for 1 h. with different concentrations of the Ag@mSiO2@HPIX hybrids, free HPIX, and Ag@mSiO2, respectively. […] Plate count method was employed to determine the viable biofilm count, after the growth of the biofilm became visible. […] In these experiments, the pure HPIX and Ag@mSiO2@HPIX hybrids have the same concentration of HPIX while the amounts of Ag in Ag@mSiO2@HPIX hybrids and Ag@mSiO2 was also kept constant.
(§6) The enhancement of antibiofilm PDI efficacy of Ag@mSiO2@HPIX hybrids is defined as log10(enhancement)=log10(Ag@mSiO2@HPIX_killing)−log10(Ag@mSiO2_killing)−log10(HPIX_killing)

[6] = tested on: S. aureus (MRSA) (ATCC BAA44) biofilm; experiment: as above; assay type: cell-based
Protocol: as §4, §3, §5, §6

[7] = dark control, tested concentrations
[8] = LED 400 nm, 1000 mW/cm2 (blue LED 1 W/cm^2, up to 90 min), after 1 h incubation

## CCC1=C(C)c2cc3[nH]c(cc4[nH]c(cc5nc(cc1n2)C(C)=C5CC)c(C)c4CCC(=O)O)c(CCC(=O)O)c3C [PIX, meso-porphyrin IX]
[1]
  loading efficiency: 750 µg/mg

## Cc1cc2nc3c(=O)[nH]c(=O)nc-3n(C[C@H](O)[C@H](O)[C@H](O)CO)c2cc1C [Riboflavin, riboflavin]
[2]
  killing efficacy under visible light and near-infrared irradiations: needs visible light excitation to display rather moderate antibacterial effect
[3]
  killing efficacy under visible light and near-infrared irradiations: needs visible light excitation to display rather moderate antibacterial effect
[4]; Example 2
  killing efficacy under visible light and near-infrared irradiations: needs visible light excitation to display rather moderate antibacterial effect

## O=C(O)c1ccc(-c2c3nc(c(-c4ccc(C(=O)O)cc4)c4ccc([nH]4)c(-c4ccc(C(=O)O)cc4)c4nc(c(-c5ccc(C(=O)O)cc5)c5ccc2[nH]5)C=C4)C=C3)cc1 [TCPP, meso-tetra(4-carboxyphenyl) porphine]
[1]
  loading efficiency: 140.7 µg/mg

## O=C1OC2(c3cc(I)c(O)c(I)c3Oc3c2cc(I)c(O)c3I)c2c(Cl)c(Cl)c(Cl)c(Cl)c21 [RB, rose bengal]
[1]
  loading efficiency: 33.6 µg/mg

## CC1=C(CCC(=O)O)c2cc3[nH]c(cc4nc(cc5[nH]c(cc1n2)c(C)c5C(C)O)C(C)=C4C(C)O)c(C)c3CCC(=O)O (stereo not shown) [HPIX, hematoporphyrin IX dihydrochloride]
T. rubrum (ATCC 28188); LED 400 nm, 54 mW/cm2, after 30 min incubation
  PDI efficacy under LED illumination: negligible PDI efficacy
T. rubrum (ATCC 28188); [7]
  antifungal effect without LED illumination: None of the Ag@mSiO2@HPIX hybrids, pure HPIX or Ag@mSiO2 at the tested concentrations shows antifungal effect
[5]; [8]
  PDI efficacy on biofilm under LED illumination: negligible PDI efficacy
[5]; [7]
  antibiofilm effects without LED illumination: None of the Ag@mSiO2@HPIX hybrids, pure HPIX or Ag@mSiO2 at the tested concentrations shows antibiofilm effects
[6]; [8]
  PDI efficacy on biofilm under LED illumination: negligible PDI efficacy
[6]; [7]
  antibiofilm effects without LED illumination: None of the Ag@mSiO2@HPIX hybrids, pure HPIX or Ag@mSiO2 at the tested concentrations shows antibiofilm effects
[4]; parallel dark experiments
  antibacterial effect without light illumination: negligible antibacterial effect
[1]
  loading efficiency: 27.4 µg/mg

## O=C([O-])c1ccc(C2=C3C=CC(=N3)C(c3ccc(C(=O)[O-])cc3)=C3C=CC(=N3)C(=c3ccc(=C([O-])[O-])cc3)c3ccc([n-]3)C(c3ccc(C(=O)[O-])cc3)=C3C=CC2=N3)cc1.[67Cu+2].[H+].[H+].[H+].[H+] [Cu-TCPP, Cu(II) meso-tetra(4-carboxyphenyl) porphine]
[1]
  loading efficiency: 260.5 µg/mg

## tris(2,2′-bipyridyl)dichlororuthenium(II) hexahydrate [RuBPy]
[1]
  loading efficiency: 28.3 µg/mg
